Read-outs that look alike come from different tables or passages of the source.
Experiments:
HDF cells [1] = test: Evaluation of cell morphology (Sirius Red stained cells, microscopy); format: cell-based, Human
Description: Their morphology, colour and shape have been evaluated by using the ImageJ software program.
The results of the effects on cell morphology, produced by the treatment with the test compounds for 24 hours at the concentrations specified, in HDF cells stained for collagen with PSR are shown in Figures 4a-d, 5a-d and 6a-f. These Figures allow evaluating cell morphology through light microscopy observation at magnifications of 100x, 200x and 400x for HDF cells cultured under standard growth conditions, in the presence of 100 µM H2O2 and in the presence of 34 ng/ml TGF-β1.

interleukin 1β (IL-1β) = test: Inflammatory cytokines in cell supernatant (Mosaic ELISA microarray): IL-1β; format: cell-based, Human; settings: for IL-1β ng/(ml* No. of cells from photo) ± SD: 24 hours
[2] = Anti-radical activity (decay of the DPPH radical); format: biochemical; settings: for Anti-radical (skin protective): 24 hours
Summary of the method: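 Test substance in ethanol mixed 1:1 with 200 µM DPPH (stock concentrations), in quadruplicate. Absorbance read at 530 nm after 30 min, with vitamin C and ethanol-only controls. IC50 from variable-slope Hill regression of dose-activity curves.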

[3] = system: Human dermal fibroblasts (HDF); test: Mitochondrial dehydrogenase activity (WST-1 formazan assay) in HDF cells; settings: for mitochondrial dehydrogenase activity (effect in words): 1 µM; for Revitalizing agent: 24 hours; for activity at 1 µM / activity at 10 µM: Homo sapiens, Fibroblast, read-out: % mitochondrial dehydrogenase activity ± SD
Description: Human dermal fibroblasts were used for assay at the 3rd T75 passage.
Mitochondrial dehydrogenase activity was measured in HDF, HEK and HUVEC cells by means of the formazan assay, using the WST-1 kit from Roche Diagnostic in accordance with the supplier's instructions. Briefly: the reagent was added (10 µl per well), the incubation was carried out for a further 2 hours or 4 hours, and, at the end of this time, the absorbance was read for 1 s at a wavelength of 450 nm in a Perkin Elmer Victor 2 Wallac microplate reader.
The activity percentage (% mitochondrial dehydrogenase activity) is defined as: % mitochondrial dehydrogenase activity = ((absorbance of treated cells - absorbance of blank) / (absorbance of control - absorbance of blank)) x 100.
The tests were performed with observations after 18 hours, seeding 8,000 cells per well, and after 42 hours, seeding 2,000 cells per well. Furthermore, in order to better analyze the dose/response curves for dihydroberberine, canadine and stylopine, curves were collected at 11 concentrations by seeding 2,000 cells per well with 46 hours incubation.
Dose/response curves are plotted at 6 concentrations. The tests were performed with observations after 24 hours, seeding 8,000 cells per well.

HDF cells [4] = test: Evaluation of cell proliferation (counting of Sirius Red stained cells in photographs); settings: for No. of cells from photo ± SD: 24 hours
HDF cells [5] = test: Summary of uses and toxic effects deduced from the cell assays (Table 1); format: cell-based, Human; settings: for Anti-fibrotic (prevention of scar formation, also from acne) / Cytoprotective (antioxidant, anti-inflammatory and anti-ageing; useful also in the treatment of acne) / Cytotoxic / Irritant / Wound-healing: 24 hours
Summary of the method: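 HDF cells exposed to test substances at a given dosage for 24 h; uses and toxicity inferred from free-radical scavenging, mitochondrial dehydrogenase activity, IL-1β/IL-6 production (basal or induced by 100 µM H2O2), proliferation under standard growth conditions, and senescence-like morphology.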

[6] = system: collagen produced by HDF cells; test: Quantity of collagen produced by the cells (elution of Sirius Red)
interleukin 6 (IL-6) = test: Inflammatory cytokines in cell supernatant (Mosaic ELISA microarray): IL-6; format: cell-based, Human; settings: for IL-6 ng/(ml* No. of cells from photo) ± SD: 24 hours
[7] = Dose 1 µm (coptisine: 1 pm [sic])

Structure (SMILES): CN1Cc2c(ccc3c2OCO3)[C@@H]2[C@H]1c1cc3c(cc1C[C@@H]2O)OCO3 [chelidonine]
- cell morphology (HDF cells [1]; 1 µM): No changes in cell morphology
- cell morphology (HDF cells [1]; 10 µM): Very obvious changes in cell morphology
- IL-1β production (effect in words) (interleukin 1β (IL-1β); 1 µM, 34 ng/ml TGF-β1): antagonizes the production of IL-1β
- IL-1β ng/(ml* No. of cells from photo) ± SD (interleukin 1β (IL-1β); 1 µM, 34 ng/ml TGF-β1): 127±26 ng/(ml* No. of cells from photo)
- IL-1β production (effect in words) (interleukin 1β (IL-1β); 1 µM, 100 µM H2O2): antagonizes the production of IL-1β
- IL-1β ng/(ml* No. of cells from photo) ± SD (interleukin 1β (IL-1β); 1 µM, 100 µM H2O2): 115±8 ng/(ml* No. of cells from photo)
- IL-1β ng/(ml* No. of cells from photo) ± SD (interleukin 1β (IL-1β); 1 µM, Standard conditions): 666±30 ng/(ml* No. of cells from photo)
- IL-1β production (effect in words) (interleukin 1β (IL-1β); 1 µM, standard conditions): inhibits the production of IL-1β
- IL-1β production (effect in words) (interleukin 1β (IL-1β); 10 µM, 34 ng/ml TGF-β1): stimulates IL-1β production
- IL-1β ng/(ml* No. of cells from photo) ± SD (interleukin 1β (IL-1β); 10 µM, 34 ng/ml TGF-β1): 363±27 ng/(ml* No. of cells from photo)
- IL-1β production (effect in words) (interleukin 1β (IL-1β); 10 µM, 100 µM H2O2): stimulates IL-1β production
- IL-1β ng/(ml* No. of cells from photo) ± SD (interleukin 1β (IL-1β); 10 µM, 100 µM H2O2): 366±35 ng/(ml* No. of cells from photo)
- IL-1β ng/(ml* No. of cells from photo) ± SD (interleukin 1β (IL-1β); 10 µM, Standard conditions): 17500±700 ng/(ml* No. of cells from photo)
- IL-1β production (effect in words) (interleukin 1β (IL-1β); 10 µM, standard conditions): stimulates IL-1β production
- % DPPH activity ([2]; 1 mM, 30 minutes): 98%
- Anti-radical (skin protective) [2, 7]: No
- Anti-radical (skin protective) ([2]; Dose 10 µm): No
- concentrations below which no significant effects on mitochondrial dehydrogenase activity are shown [3]: less than 0.1 µM
- mitochondrial dehydrogenase activity (effect in words) ([3]; 18 h): absence of effects
- mitochondrial dehydrogenase activity (effect in words) ([3]; increased exposure time): significant inhibition of mitochondrial dehydrogenase activity
- Revitalizing agent [3, 7]: No
- Revitalizing agent ([3]; Dose 10 µm): No
- activity at 1 µM ([3]; 18 h): 105 ± 7.05%
- activity at 10 µM ([3]; 18 h): 89.3 ± 6.9%
- activity at 1 µM ([3]; 42 h): 64.7 ± 5.88%
- activity at 10 µM ([3]; 42 h): 30.3 ± 2.97%
- inhibitory power toward the mitochondrial dehydrogenase activity ([3]; skin fibroblast cells and/or keratinocytes): marked inhibitory power
- cell proliferation (effect in words) (HDF cells [4]; 1 µM): no evident ability to modulate cell proliferation
- No. of cells from photo ± SD (HDF cells [4]; 1 µM, 34 ng/ml TGF-β1): 184±25
- No. of cells from photo ± SD (HDF cells [4]; 1 µM, 100 µM H2O2): 189±37
- No. of cells from photo ± SD (HDF cells [4]; 1 µM, Standard conditions): 202±21
- cell proliferation (effect in words) (HDF cells [4]; 10 µM): marked inhibition of proliferation
- No. of cells from photo ± SD (HDF cells [4]; 10 µM, 100 µM H2O2): 101±4
- No. of cells from photo ± SD (HDF cells [4]; 10 µM, Standard conditions): 109±16
- Anti-fibrotic (prevention of scar formation, also from acne) (HDF cells [5]; [7]): Yes (↓collagen, ↓IL-6, ↓IL-1β)
- Cytoprotective (antioxidant, anti-inflammatory and anti-ageing; useful also in the treatment of acne) (HDF cells [5]; [7]): Yes (↓IL-6, ↓IL-1β)
- Cytotoxic (HDF cells [5]; [7]): No
- Irritant (HDF cells [5]; [7]): No
- Wound-healing (HDF cells [5]; [7]): Yes (↓IL-1β)
- Anti-fibrotic (prevention of scar formation, also from acne) (HDF cells [5]; Dose 10 µm): No
- Cytoprotective (antioxidant, anti-inflammatory and anti-ageing; useful also in the treatment of acne) (HDF cells [5]; Dose 10 µm): No
- Cytotoxic (HDF cells [5]; Dose 10 µm): Yes (senescent morph., ↓dehydrogenase)
- Irritant (HDF cells [5]; Dose 10 µm): Yes (↑IL-6, ↑IL-1β)
- Wound-healing (HDF cells [5]; Dose 10 µm): No
- concentrations at which no toxic (cytotoxic and irritant) effects are shown (HDF cells [5]; exposure for 24 hours): less than or equal to 1 µM
- collagen production (effect in words) ([6]; 1 µM, 34 ng/ml TGF-β1): tendency to antagonize collagen stimulation induced by TGF-β1
- collagen production (effect in words) ([6]; 1 µM, 100 µM H2O2): tendency to inhibit collagen production
- collagen production (effect in words) ([6]; 1 µM, standard conditions): no evident ability to modulate collagen production
- collagen production (effect in words) ([6]; 10 µM, 34 ng/ml TGF-β1): stimulates collagen production
- collagen production (effect in words) ([6]; 10 µM, 100 µM H2O2): stimulates collagen production
- collagen production (effect in words) ([6]; 10 µM, standard conditions): stimulates collagen production
- IL-6 production (effect in words) (interleukin 6 (IL-6); 1 µM, 34 ng/ml TGF-β1): antagonizes the production of IL-6
- IL-6 ng/(ml* No. of cells from photo) ± SD (interleukin 6 (IL-6); 1 µM, 34 ng/ml TGF-β1): 620±72 ng/(ml* No. of cells from photo)
- IL-6 production (effect in words) (interleukin 6 (IL-6); 1 µM, 100 µM H2O2): antagonizes the production of IL-6
- IL-6 ng/(ml* No. of cells from photo) ± SD (interleukin 6 (IL-6); 1 µM, 100 µM H2O2): 697±87 ng/(ml* No. of cells from photo)
- IL-6 ng/(ml* No. of cells from photo) ± SD (interleukin 6 (IL-6); 1 µM, Standard conditions): 2883±553 ng/(ml* No. of cells from photo)
- IL-6 production (effect in words) (interleukin 6 (IL-6); 1 µM, standard conditions): inhibits the production of IL-6
- IL-6 production (effect in words) (interleukin 6 (IL-6); 10 µM, 34 ng/ml TGF-β1): stimulates IL-6 production
- IL-6 ng/(ml* No. of cells from photo) ± SD (interleukin 6 (IL-6); 10 µM, 34 ng/ml TGF-β1): 1231±76 ng/(ml* No. of cells from photo)
- IL-6 production (effect in words) (interleukin 6 (IL-6); 10 µM, 100 µM H2O2): stimulates IL-6 production
- IL-6 ng/(ml* No. of cells from photo) ± SD (interleukin 6 (IL-6); 10 µM, 100 µM H2O2): 1990±32 ng/(ml* No. of cells from photo)
- IL-6 ng/(ml* No. of cells from photo) ± SD (interleukin 6 (IL-6); 10 µM, Standard conditions): 38100±8300 ng/(ml* No. of cells from photo)
- IL-6 production (effect in words) (interleukin 6 (IL-6); 10 µM, standard conditions): stimulates IL-6 production

Structure (SMILES): C[n+]1cc2c3c(ccc2c2ccc4cc5c(cc4c21)OCO5)OCO3 [sanguinarine]
- cell morphology (HDF cells [1]; 1 µM): senescent morphology
- cell morphology (HDF cells [1]; 10 µM): complete absence of cells
- IL-1β ng/(ml* No. of cells from photo) ± SD (interleukin 1β (IL-1β); 1 µM, 34 ng/ml TGF-β1): 297±13 ng/(ml* No. of cells from photo)
- IL-1β ng/(ml* No. of cells from photo) ± SD (interleukin 1β (IL-1β); 1 µM, 100 µM H2O2): 253±9 ng/(ml* No. of cells from photo)
- IL-1β ng/(ml* No. of cells from photo) ± SD (interleukin 1β (IL-1β); 1 µM, Standard conditions): 75±1 ng/(ml* No. of cells from photo)
- IL-1β ng/(ml* No. of cells from photo) ± SD (interleukin 1β (IL-1β); 10 µM, 34 ng/ml TGF-β1): 16400±5000 ng/(ml* No. of cells from photo)
- IL-1β ng/(ml* No. of cells from photo) ± SD (interleukin 1β (IL-1β); 10 µM, 100 µM H2O2): 18400±2800 ng/(ml* No. of cells from photo)
- IL-1β ng/(ml* No. of cells from photo) ± SD (interleukin 1β (IL-1β); 10 µM, Standard conditions): 4535±81 ng/(ml* No. of cells from photo)
- concentrations above which marked inhibition of mitochondrial dehydrogenase activity is caused ([3]; 18 h and 42 h): higher than 1 µM
- activity at 1 µM ([3]; 18 h): 83.3 ± 6.83%
- activity at 10 µM ([3]; 18 h): -1.57 ± 1.65%
- activity at 1 µM ([3]; 42 h): -2.8 ± 3.67%
- activity at 10 µM ([3]; 42 h): -16.6 ± 2.55%
- No. of cells from photo ± SD (HDF cells [4]; 1 µM, 34 ng/ml TGF-β1): 86±7
- No. of cells from photo ± SD (HDF cells [4]; 1 µM, 100 µM H2O2): 110±18
- No. of cells from photo ± SD (HDF cells [4]; 1 µM, Standard conditions): 30±9
- No. of cells from photo ± SD (HDF cells [4]; 10 µM, 34 ng/ml TGF-β1): 1±0
- No. of cells from photo ± SD (HDF cells [4]; 10 µM, 100 µM H2O2): 1±0
- No. of cells from photo ± SD (HDF cells [4]; 10 µM, Standard conditions): 1±0
- Cytotoxic (HDF cells [5]; [7]): Yes (senescent morph., ↓dehydrogenase)
- Irritant (HDF cells [5]; [7]): Yes (↑IL-6, ↑IL-1β)
- Cytotoxic (HDF cells [5]; Dose 10 µm): Yes (cell death, ↓dehydrogenase)
- Irritant (HDF cells [5]; Dose 10 µm): Yes (↑IL-6, ↑IL-1β)
- concentrations at which toxic (cytotoxic and irritant) effects are shown (HDF cells [5]; exposure for 24 hours): greater than or equal to 1 µM
- IL-6 ng/(ml* No. of cells from photo) ± SD (interleukin 6 (IL-6); 1 µM, 34 ng/ml TGF-β1): 2167±279 ng/(ml* No. of cells from photo)
- IL-6 ng/(ml* No. of cells from photo) ± SD (interleukin 6 (IL-6); 1 µM, 100 µM H2O2): 2374±264 ng/(ml* No. of cells from photo)
- IL-6 ng/(ml* No. of cells from photo) ± SD (interleukin 6 (IL-6); 1 µM, Standard conditions): 470±32 ng/(ml* No. of cells from photo)
- IL-6 ng/(ml* No. of cells from photo) ± SD (interleukin 6 (IL-6); 10 µM, 34 ng/ml TGF-β1): 56600±9000 ng/(ml* No. of cells from photo)
- IL-6 ng/(ml* No. of cells from photo) ± SD (interleukin 6 (IL-6); 10 µM, 100 µM H2O2): 66300±5000 ng/(ml* No. of cells from photo)
- IL-6 ng/(ml* No. of cells from photo) ± SD (interleukin 6 (IL-6); 10 µM, Standard conditions): 17786±27 ng/(ml* No. of cells from photo)

Source: EP2787958B1, “CHELIDONIUM MAJUS EXTRACTS AND THEIR USE IN THE TREATMENT OF SKIN DISORDERS AND PROMOTION OF SKIN REGENERATION” (priority 2011, dated 2013)
